Experimental data published in PubChem BioAssay (NCI).
Several values for one entry are separate records, joined by “and”; a condition that tells them apart may be missing. Identical values can stand only once.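 Assay format: 96-well plates, 48-hour exposure. GI50 marks 50% less growth. Definition used: TGI = concentration required for complete inhibition of growth.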

How the values were obtained:
Test in all cases: NCI tumour cell line growth inhibition, 48 h
[1] = system: OVCAR-8 ovarian
[2] = system: MDA-MB-435
[3] = system: RXF 393 renal
[4] = system: NCI-H522 lung
[5] = system: COLO 205 colon
[6] = system: HOP-92 NSCLC
[7] = system: A549 NSCLC
[8] = system: SK-MEL-2 melanoma
[9] = system: SF-268 CNS
[10] = system: SK-MEL-28 melanoma

| Compound | TGI [1] | TGI [2] | GI50 [3] | TGI [3] | GI50 [4] | TGI [4] | GI50 [5] | TGI [5] | GI50 [6] | TGI [6] | GI50 [7] | TGI [7] | GI50 [8] | TGI [8] | GI50 [9] | GI50 [10] | TGI [10] | GI50 [1] | GI50 [2] | TGI [9] |
| --- | --- | --- | --- | --- | --- | --- | --- | --- | --- | --- | --- | --- | --- | --- | --- | --- | --- | --- | --- | --- |
| CC[C@@]1(O)C(=O)OCc2c1cc1n(c2=O)Cc2cc3cc(O)ccc3nc2-1 | 2.47 µM and 0.477 µM | 1.09 µM | 0.0311 µM | 0.165 µM and 0.222 µM | < 0.0075 µM | 0.103 µM and 0.447 µM | 0.573 µM | 2.36 µM and 2.56 µM | 0.0239 µM | 0.107 µM and 0.513 µM | 0.0813 µM | 3.93 µM and 2.32 µM | 0.174 µM | 2.15 µM and 1.2 µM | 0.0192 µM | 0.166 µM and 0.264 µM | 10 µM and > 38.9 µM | – | – | – |
| CCCCCCCCCCCCCCCC(=O)OCC1OC(OCCCC)[C@H](O[C@@H]2OC(C)C(OC(=O)CCC)C(O)C2O)C(O)C1O (some centres not stated) | 32.9 µM | 27.3 µM | 22.3 µM | 61.2 µM | 21.1 µM | 46.7 µM | 17.8 µM | 37.2 µM | 17 µM | 33.2 µM | 17.4 µM | 34 µM | 41.2 µM | > 100 µM | 18.4 µM | 16.5 µM | 32.1 µM | 17 µM | 13.3 µM | 42.4 µM |
| CCN(CC)CCN1C(=O)c2c(c3c4cccc(Cl)c4n(C4OC(CO)C(OC)C(O)C4O)c3c3[nH]c4c(Cl)cccc4c23)C1=O (configuration not stated) | – | 0.217 µM | < 0.0001 µM | – | < 0.01 µM | 0.21 µM and 0.146 µM | – | – | 0.000362 µM | – | < 0.0001 µM | – | 0.00103 µM and < 0.01 µM | – | < 0.0001 µM | – | – | < 0.0001 µM | – | – |
| C/C=C(/C)C(=O)OC1C=C(CO)C(=O)C(OC(=O)C2(C)OC2C)C1C(C)C (configuration not stated) | 5.54 µM | 2.88 µM | 1.77 µM | 3.27 µM | 1.07 µM | 2.54 µM | 1.85 µM | 3.43 µM | 1.65 µM | 3.33 µM | 2.6 µM | 7.7 µM | 1.85 µM | 3.59 µM | 2.46 µM | 1.78 µM | 3.33 µM | 2.07 µM | 1.49 µM | 6.32 µM |
| COc1cc(C2C=C(C)N=C3SC=C(C)N32)cc(OC)c1OC (configuration not stated) | 10.1 µM | 6.45 µM | 1.49 µM | 3.14 µM | 0.53 µM | 1.81 µM | 1.32 µM | 3.04 µM | 2.08 µM | 5.95 µM | 2.1 µM | 6.56 µM | 2.04 µM | 4.94 µM | 1.4 µM | 0.507 µM | 2.01 µM | 0.342 µM | 0.631 µM | 11.4 µM |
| CN1CCC(=C(c2ccc(Cl)cc2)c2ccccn2)CC1 | > 100 µM | > 100 µM | 54.5 µM | > 100 µM | 95.5 µM | > 100 µM | 31.7 µM | > 100 µM | 16.7 µM | > 100 µM | > 100 µM | > 100 µM | > 100 µM | > 100 µM | > 100 µM | 86.1 µM | > 100 µM | > 100 µM | 40.7 µM | > 100 µM |
| N#Cc1c(-c2ccccc2)nc(SCC(O)CN2CCOCC2)nc1N1CCOCC1 (configuration not stated) | > 100 µM | > 100 µM | 5.55 µM | 31.8 µM | 18.3 µM | > 100 µM | 29.6 µM | 84.6 µM | 0.442 µM | 2.23 µM | 6.43 µM | > 100 µM | – | – | 17.8 µM | 11.2 µM | > 100 µM | 11.4 µM | 19.6 µM | > 100 µM |
| Cc1cc2c3c(nc4ccccc42)C(=O)c2cccnc2-c3n1 | – | 0.332 µM | 1.17 µM | 3.19 µM | 0.04 µM | 0.315 µM | 1.13 µM | 2.45 µM | 0.941 µM | 8.52 µM | 0.372 µM | 1.84 µM | 1.48 µM | 3.82 µM | 0.786 µM | 0.976 µM | 2.68 µM | 0.453 µM | 0.162 µM | > 19.9 µM |
| N#C/C(=C\c1ccc(O)c(O)c1)C(=O)NCc1cccc(C(F)(F)F)c1 | 62.2 µM | 18 µM | 17.3 µM | 84.5 µM | 7.71 µM | 63.2 µM | 24.4 µM | 76.6 µM | 3.2 µM | 26.8 µM | 15.1 µM | 90 µM | 0.115 µM | 2.98 µM | 13.7 µM | 21.6 µM | 72.6 µM | 10.2 µM | 4.28 µM | 42.1 µM |
| Oc1ccc(/C=N/NC(=S)Nc2ccccc2)nc1 | > 100 µM | > 100 µM | 0.667 µM | 4.91 µM | 1.94 µM | 39.8 µM | 3.31 µM | > 100 µM | 0.439 µM | 6.92 µM | 2.33 µM | 26.3 µM | 1.54 µM | 44.1 µM | 0.969 µM | 3.14 µM | > 100 µM | 0.586 µM | 2.19 µM | > 100 µM |
| COc1ccc(/C=C/C(=O)C(=O)/C=C/c2ccc(OC)c(OC)c2)cc1OC | > 100 µM | 2.98 µM | 1.46 µM | 3.04 µM | 3.75 µM | 19.3 µM | 1.9 µM | 4.95 µM | 15.1 µM | 82.8 µM | > 100 µM | > 100 µM | 30.6 µM | > 100 µM | 2.53 µM | – | – | 2.97 µM | 1.16 µM | 8.58 µM |
| CCN1C[C@@H](C)n2c(c(O)c3c(=O)n(Cc4ccc(F)c(Cl)c4)nc(C(=O)NC)c32)C1=O | > 100 µM | > 100 µM | – | – | 2.95 µM | 9.47 µM | 18.3 µM | 40.3 µM | 1.7 µM | 4.91 µM | 3.14 µM | > 100 µM | 2.11 µM | 4.53 µM | 3.4 µM | 2.69 µM | 7.17 µM | 3.34 µM | 3.21 µM | 39.8 µM |
| CCCCNC(=O)CC1=C(C)/C(=C/c2[nH]c(-c3ccc[nH]3)cc2OC)N=C1C | 11.1 µM | 9.71 µM | 3.29 µM | 11.6 µM | 1.8 µM | 4.89 µM | 1.68 µM | 4.04 µM | 2.17 µM | 7.09 µM | 3.6 µM | 11.2 µM | 1.72 µM | 3.87 µM | 2.66 µM | – | – | 3.44 µM | 2.87 µM | 15 µM |
